Results reported in article PMC5218480 (PLoS ONE, 2017).

System: MV-4-11 cells
Experiment: Gene expression microarray analysis (Affymetrix PrimeView) and GSEA
Format: cell-based, human
Design: RFU PODN (11730768_x_at) / Fold change /veh PODN (11730768_x_at) / RFU LINC00158 (11744669_a_at) / Fold change /veh LINC00158 (11744669_a_at) / RFU DUSP10 (11751237_a_at) / Fold change /veh DUSP10 (11751237_a_at) / RFU ID3 (11757404_x_at) / Fold change /veh ID3 (11757404_x_at) / RFU PLEKHG5 (11737974_s_at) / Fold change /veh PLEKHG5 (11737974_s_at) / RFU LRRC4B (11730491_at) / Fold change /veh LRRC4B (11730491_at) / RFU GIMAP4 (11747438_a_at) / Fold change /veh GIMAP4 (11747438_a_at) / RFU KRT8 (11758183_x_at) / Fold change /veh KRT8 (11758183_x_at) / RFU CNN1 (11734310_a_at) / Fold change /veh CNN1 (11734310_a_at) / RFU VPS37D (11726825_at) / Fold change /veh VPS37D (11726825_at) / RFU C10orf10 (11716522_x_at) / Fold change /veh C10orf10 (11716522_x_at) / RFU KIR2DL2 /// KIR2DL4 /// KIR2DL5A /// KIR2DL5B /// KIR2DS1 /// KIR2DS2 /// KIR2DS3 /// KIR2DS4 /// KIR3DL3 /// KIR3DL3 /// KIR3DS1 (11738374_at) / Fold change /veh KIR2DL2 /// KIR2DL4 /// KIR2DL5A /// KIR2DL5B /// KIR2DS1 /// KIR2DS2 /// KIR2DS3 /// KIR2DS4 /// KIR3DL3 /// KIR3DL3 /// KIR3DS1 (11738374_at) / RFU C1QL1 (11718748_at) / Fold change /veh C1QL1 (11718748_at) / RFU TMPRSS4 (11747572_a_at) / Fold change /veh TMPRSS4 (11747572_a_at) / RFU HAMP (11756126_x_at) / Fold change /veh HAMP (11756126_x_at) / RFU RNFT2 (11725882_a_at) / Fold change /veh RNFT2 (11725882_a_at) / RFU NR4A2 (11747474_a_at) / Fold change /veh NR4A2 (11747474_a_at) / RFU ABCC12 (11746883_a_at) / Fold change /veh ABCC12 (11746883_a_at) / RFU TMEM136 (11760407_x_at) / Fold change /veh TMEM136 (11760407_x_at) / RFU CLDN22 /// WWC2 (11732394_at) / Fold change /veh CLDN22 /// WWC2 (11732394_at) / RFU HLA-DPB1 (11760878_x_at) / Fold change /veh HLA-DPB1 (11760878_x_at) / RFU SPINT1 (11716480_a_at) / Fold change /veh SPINT1 (11716480_a_at) / RFU GAP43 (11754022_s_at) / Fold change /veh GAP43 (11754022_s_at) / RFU A4GNT (11735810_at) / Fold change /veh A4GNT (11735810_at) / RFU PRB3 (11715151_x_at) / Fold change /veh PRB3 (11715151_x_at) / RFU TUBB4B (11761932_at) / Fold change /veh TUBB4B (11761932_at) / RFU CAPN14 (11732068_a_at) / Fold change /veh CAPN14 (11732068_a_at) / RFU TMCC2 (11721928_a_at) / Fold change /veh TMCC2 (11721928_a_at) / RFU IRGQ (11745062_a_at) / Fold change /veh IRGQ (11745062_a_at) / RFU FAM174B (11720279_a_at) / Fold change /veh FAM174B (11720279_a_at) / RFU TMPRSS4 (11748680_a_at) / Fold change /veh TMPRSS4 (11748680_a_at) / RFU FAM212B (11763350_a_at) / Fold change /veh FAM212B (11763350_a_at) / RFU PLEKHG5 (11743358_a_at) / Fold change /veh PLEKHG5 (11743358_a_at) / RFU ZSCAN30 (11745921_a_at) / Fold change /veh ZSCAN30 (11745921_a_at) / RFU CMKLR1 (11741424_a_at) / Fold change /veh CMKLR1 (11741424_a_at) / RFU LOC101060620 /// MAPK8IP1 (11723275_at) / Fold change /veh LOC101060620 /// MAPK8IP1 (11723275_at) / RFU SPTSSB (11747773_x_at) / Fold change /veh SPTSSB (11747773_x_at) / RFU PRSS12 (11739890_at) / Fold change /veh PRSS12 (11739890_at) / RFU BIN1 (11741810_x_at) / Fold change /veh BIN1 (11741810_x_at) / RFU WNT11 (11732464_a_at) / Fold change /veh WNT11 (11732464_a_at) / RFU C10orf10 (11716521_a_at) / Fold change /veh C10orf10 (11716521_a_at) / RFU C5orf56 (11738089_at) / Fold change /veh C5orf56 (11738089_at) / RFU CYB561 (11721691_x_at) / Fold change /veh CYB561 (11721691_x_at) / RFU ANKRD19P (11752326_a_at) / Fold change /veh ANKRD19P (11752326_a_at) / RFU OR2T12 /// OR2T33 /// OR2T8 (11738714_s_at) / Fold change /veh OR2T12 /// OR2T33 /// OR2T8 (11738714_s_at) / RFU VCAN (11748164_a_at) / Fold change /veh VCAN (11748164_a_at) / RFU JSRP1 (11732532_at) / Fold change /veh JSRP1 (11732532_at) / RFU KRTAP10-11 (11738290_x_at) / Fold change /veh KRTAP10-11 (11738290_x_at) / RFU MYO3A (11730013_a_at) / Fold change /veh MYO3A (11730013_a_at) / RFU EBF3 (11725865_a_at) / Fold change /veh EBF3 (11725865_a_at) / RFU CAMK2N1 (11719241_x_at) / Fold change /veh CAMK2N1 (11719241_x_at) / RFU C5orf56 (11738088_a_at) / Fold change /veh C5orf56 (11738088_a_at) / RFU OLFML3 (11715873_a_at) / Fold change /veh OLFML3 (11715873_a_at) / RFU LOC100653217 /// NTM (11731650_a_at) / Fold change /veh LOC100653217 /// NTM (11731650_a_at) / RFU MAPK11 (11762145_a_at) / Fold change /veh MAPK11 (11762145_a_at) / RFU FIZ1 (11724087_x_at) / Fold change /veh FIZ1 (11724087_x_at) / RFU OASL (11726364_x_at) / Fold change /veh OASL (11726364_x_at) / RFU SOX15 (11748057_x_at) / Fold change /veh SOX15 (11748057_x_at) / RFU CD79A (11719716_a_at) / Fold change /veh CD79A (11719716_a_at) / RFU HIST1H1D (11736915_at) / Fold change /veh HIST1H1D (11736915_at) / RFU CASKIN2 (11723855_a_at) / Fold change /veh CASKIN2 (11723855_a_at) / RFU LOC730098 (11760151_x_at) / Fold change /veh LOC730098 (11760151_x_at) / RFU OR4N2 (11742367_at) / Fold change /veh OR4N2 (11742367_at) / RFU PRRT2 (11749266_a_at) / Fold change /veh PRRT2 (11749266_a_at) / RFU SNX32 (11753110_a_at) / Fold change /veh SNX32 (11753110_a_at) / RFU CDHR5 (11726645_a_at) / Fold change /veh CDHR5 (11726645_a_at) / RFU RCAN1 (11760418_a_at) / Fold change /veh RCAN1 (11760418_a_at) / RFU FAM167A (11723789_a_at) / Fold change /veh FAM167A (11723789_a_at) / RFU FAM26E (11764081_at) / Fold change /veh FAM26E (11764081_at) / RFU ISYNA1 (11749810_s_at) / Fold change /veh ISYNA1 (11749810_s_at) / RFU ACY1 (11761880_at) / Fold change /veh ACY1 (11761880_at) / RFU 11764098_at / Fold change /veh 11764098_at / RFU SAMD14 (11745864_x_at) / Fold change /veh SAMD14 (11745864_x_at) / RFU NPB (11741838_a_at) / Fold change /veh NPB (11741838_a_at) / RFU TMPRSS6 (11731388_a_at) / Fold change /veh TMPRSS6 (11731388_a_at) / RFU KRTAP10-2 (11738614_at) / Fold change /veh KRTAP10-2 (11738614_at) / RFU ARHGAP8 /// PRR5-ARHGAP8 (11727945_x_at) / Fold change /veh ARHGAP8 /// PRR5-ARHGAP8 (11727945_x_at) / RFU KRTAP5-7 /// NADSYN1 (11734609_at) / Fold change /veh KRTAP5-7 /// NADSYN1 (11734609_at) / RFU RASL12 (11751679_a_at) / Fold change /veh RASL12 (11751679_a_at) / RFU CDKN2B (11736163_a_at) / Fold change /veh CDKN2B (11736163_a_at) / RFU PRF1 (11729649_at) / Fold change /veh PRF1 (11729649_at) / RFU, ZNF638 /// ZNF638-IT1 / Fold change vs veh, ZNF638 /// ZNF638-IT1 / RFU, PANK3 / Fold change vs veh, PANK3 / RFU, SH3YL1 / Fold change vs veh, SH3YL1 / RFU, ZEB2 / Fold change vs veh, ZEB2 / RFU, NRIP1 / Fold change vs veh, NRIP1 / RFU, PTTG1IP / Fold change vs veh, PTTG1IP / RFU, CAPN2 / Fold change vs veh, CAPN2 / RFU, MED14 / Fold change vs veh, MED14 / RFU, SNORA58 / Fold change vs veh, SNORA58 / RFU, C1orf63 / Fold change vs veh, C1orf63 / RFU, LRRFIP1 / Fold change vs veh, LRRFIP1 / RFU, NDUFAF7 / Fold change vs veh, NDUFAF7 / RFU, SLC12A2 / Fold change vs veh, SLC12A2 / RFU, IBTK / Fold change vs veh, IBTK / RFU, ESF1 / Fold change vs veh, ESF1 / Fold change vs veh, TMEM50B / RFU, TAOK1 / Fold change vs veh, TAOK1 / RFU, ACBD3 / Fold change vs veh, ACBD3 / RFU, TMA16 / Fold change vs veh, TMA16 / RFU, RWDD3 / Fold change vs veh, RWDD3 / RFU, BCAT1 / Fold change vs veh, BCAT1 / RFU, EDEM3 / Fold change vs veh, EDEM3 / RFU, TMEM33 / Fold change vs veh, TMEM33 / RFU, WDR75 / Fold change vs veh, WDR75 / RFU, AHCTF1 / Fold change vs veh, AHCTF1 / RFU, TFRC / Fold change vs veh, TFRC / RFU, ZDHHC17 / Fold change vs veh, ZDHHC17 / RFU, NOM1 / Fold change vs veh, NOM1 / RFU, ARL8B / Fold change vs veh, ARL8B / RFU, ZBTB11 / Fold change vs veh, ZBTB11 / RFU, TAMM41 / Fold change vs veh, TAMM41 / RFU, KIAA1704 /// LOC100996395 / Fold change vs veh, KIAA1704 /// LOC100996395 / RFU, ING1 / Fold change vs veh, ING1 / RFU, TRMT61B / Fold change vs veh, TRMT61B / RFU, FUBP3 / Fold change vs veh, FUBP3 / RFU, TP53 / Fold change vs veh, TP53 / RFU, TNKS2 / Fold change vs veh, TNKS2 / RFU, ZFP14 / Fold change vs veh, ZFP14 / RFU, ACTR2 / Fold change vs veh, ACTR2 / RFU, PPP3R1 / Fold change vs veh, PPP3R1 / RFU, PIK3R1 / Fold change vs veh, PIK3R1 / RFU, HNRNPA1 / Fold change vs veh, HNRNPA1 / RFU, RNF170 / Fold change vs veh, RNF170 / RFU, ZNF28 / Fold change vs veh, ZNF28 / RFU, RNGTT / Fold change vs veh, RNGTT / RFU, OGT / Fold change vs veh, OGT / RFU, BRD1 / Fold change vs veh, BRD1 / RFU, MARS / Fold change vs veh, MARS / RFU, ZNF655 / Fold change vs veh, ZNF655 / RFU, FAHD1 / Fold change vs veh, FAHD1 / RFU, BDP1 / Fold change vs veh, BDP1 / RFU, LRRCC1 / Fold change vs veh, LRRCC1 / RFU, ARID1A / Fold change vs veh, ARID1A / RFU, ZNF146 / Fold change vs veh, ZNF146 / RFU, ZNF330 / Fold change vs veh, ZNF330 / RFU, GPN3 / Fold change vs veh, GPN3 / RFU, C9orf123 / Fold change vs veh, C9orf123 / RFU, N4BP2L2 / Fold change vs veh, N4BP2L2 / RFU, ARFIP1 / Fold change vs veh, ARFIP1 / RFU, FAM179B / Fold change vs veh, FAM179B / RFU, BCL10 / Fold change vs veh, BCL10 / RFU, UHRF1BP1L / Fold change vs veh, UHRF1BP1L / RFU, BET1 / Fold change vs veh, BET1 / RFU, CNOT2 / Fold change vs veh, CNOT2 / RFU, ZNF268 / Fold change vs veh, ZNF268 / Fold change vs veh, ZNF507 / RFU, DGCR2 / Fold change vs veh, DGCR2 / RFU, WDSUB1 / Fold change vs veh, WDSUB1 / Fold change vs veh, HSP90B1 /// MIR3652 / RFU, ADSS / Fold change vs veh, ADSS / RFU, GK / Fold change vs veh, GK / RFU, ZNF148 / Fold change vs veh, ZNF148 / RFU, TAF9 / Fold change vs veh, TAF9 / RFU, SLC1A5 / Fold change vs veh, SLC1A5 / RFU, SLMO2 / Fold change vs veh, SLMO2 / RFU, ABCC4 / Fold change vs veh, ABCC4 / RFU, LOC101060439 /// RAP1B / Fold change vs veh, LOC101060439 /// RAP1B / RFU, RFX7 / Fold change vs veh, RFX7 / RFU, GTPBP10 / Fold change vs veh, GTPBP10 / RFU, CNEP1R1 / Fold change vs veh, CNEP1R1 / RFU, BIVM-ERCC5 /// ERCC5 / Fold change vs veh, BIVM-ERCC5 /// ERCC5 / RFU, ILF3 / Fold change vs veh, ILF3 / RFU 11762660_at / Fold change /veh 11762660_at / RFU VCAN (11757783_s_at) / Fold change /veh VCAN (11757783_s_at) / RFU DDX43 (11728927_at) / Fold change /veh DDX43 (11728927_at) / RFU KRT8 (11758188_x_at) / Fold change /veh KRT8 (11758188_x_at) / RFU NKD1 (11759106_at) / Fold change /veh NKD1 (11759106_at) / RFU SRD5A1 (11742802_a_at) / Fold change /veh SRD5A1 (11742802_a_at) / RFU TPSAB1 /// TPSB2 (11721975_s_at) / Fold change /veh TPSAB1 /// TPSB2 (11721975_s_at) / RFU GSTM3 (11746129_a_at) / Fold change /veh GSTM3 (11746129_a_at) / RFU IL23R (11737362_x_at) / Fold change /veh IL23R (11737362_x_at) / RFU TMEM51 (11727254_a_at) / Fold change /veh TMEM51 (11727254_a_at) / RFU PIWIL2 (11732686_x_at) / Fold change /veh PIWIL2 (11732686_x_at) / RFU ORM1 (11744905_x_at) / Fold change /veh ORM1 (11744905_x_at) / RFU CCDC152 (11743942_at) / Fold change /veh CCDC152 (11743942_at) / RFU ECM1 (11717891_a_at) / Fold change /veh ECM1 (11717891_a_at) / RFU IL23R (11748794_a_at) / Fold change /veh IL23R (11748794_a_at) / RFU TNFAIP8L3 (11732012_x_at) / Fold change /veh TNFAIP8L3 (11732012_x_at) / RFU MBOAT4 (11741988_at) / Fold change /veh MBOAT4 (11741988_at) / RFU 11764193_at / Fold change /veh 11764193_at / RFU TMEM53 (11763286_at) / Fold change /veh TMEM53 (11763286_at) / RFU MAGEB2 (11727129_at) / Fold change /veh MAGEB2 (11727129_at) / RFU TMEM200A (11744735_a_at) / Fold change /veh TMEM200A (11744735_a_at) / RFU CCDC152 (11751479_a_at) / Fold change /veh CCDC152 (11751479_a_at) / RFU FAM211A (11726209_a_at) / Fold change /veh FAM211A (11726209_a_at) / RFU RGS16 (11746705_a_at) / Fold change /veh RGS16 (11746705_a_at) / RFU VCAN (11755009_s_at) / Fold change /veh VCAN (11755009_s_at) / RFU RHOB (11743442_s_at) / Fold change /veh RHOB (11743442_s_at) / RFU RGS16 (11720943_a_at) / Fold change /veh RGS16 (11720943_a_at) / RFU RGS16 (11720944_at) / Fold change /veh RGS16 (11720944_at) / RFU, VPS4B / Fold change vs veh, VPS4B / RFU, CREB1 / Fold change vs veh, CREB1 / RFU, DNAJC13 / Fold change vs veh, DNAJC13 / RFU, GNAQ / Fold change vs veh, GNAQ / RFU, CDK5R1 / Fold change vs veh, CDK5R1 / RFU, ZRANB3 / Fold change vs veh, ZRANB3 / RFU, CUL4A / Fold change vs veh, CUL4A / RFU, CCNY / Fold change vs veh, CCNY / RFU, UFL1 / Fold change vs veh, UFL1 / RFU, COG3 / Fold change vs veh, COG3 / RFU, DIAPH2 / Fold change vs veh, DIAPH2 / RFU, SKA2 / Fold change vs veh, SKA2 / RFU, AFF3 / Fold change vs veh, AFF3 / RFU, LMF1 / Fold change vs veh, LMF1 / RFU, IPO11 / Fold change vs veh, IPO11 / RFU, DFFB / Fold change vs veh, DFFB / RFU, FOXP1 / Fold change vs veh, FOXP1 / RFU, CARD8 / Fold change vs veh, CARD8 / RFU, STRN3 / Fold change vs veh, STRN3 / RFU, ADK / Fold change vs veh, ADK / RFU, RASSF2 / Fold change vs veh, RASSF2 / RFU, WIPF1 / Fold change vs veh, WIPF1 / RFU, LARP1B / Fold change vs veh, LARP1B / RFU, RASA1 / Fold change vs veh, RASA1 / RFU, RB1 / Fold change vs veh, RB1 / RFU, PPFIA1 / Fold change vs veh, PPFIA1 / RFU, MAT2A / Fold change vs veh, MAT2A / RFU, CCT5 / Fold change vs veh, CCT5 / RFU, WDR92 / Fold change vs veh, WDR92 / RFU, CUX1 / Fold change vs veh, CUX1 / RFU, TTC7A / Fold change vs veh, TTC7A / RFU, TMEM135 / Fold change vs veh, TMEM135 / RFU, DEPTOR / Fold change vs veh, DEPTOR / RFU, CPM / Fold change vs veh, CPM / RFU, DNAJB6 / Fold change vs veh, DNAJB6 / RFU, CACNA2D3 / Fold change vs veh, CACNA2D3 / RFU, DTX4 / Fold change vs veh, DTX4 / RFU, TFCP2 / Fold change vs veh, TFCP2 / RFU, GMCL1 /// GMCL1P1 / Fold change vs veh, GMCL1 /// GMCL1P1 / RFU, AEBP2 / Fold change vs veh, AEBP2 / RFU, SNHG1 /// SNORD22 /// SNORD25 /// SNORD26 /// SNORD27 /// SNORD28 /// SNORD29 /// SNORD31 / Fold change vs veh, SNHG1 /// SNORD22 /// SNORD25 /// SNORD26 /// SNORD27 /// SNORD28 /// SNORD29 /// SNORD31 / Fold change (Aza/veh), C12orf56 (ProbeSet 11735607_a_at) / Fold change (ACY-1035/veh), C12orf56 (ProbeSet 11735607_a_at) / Fold change (Aza/veh), FGFR1OP (ProbeSet 11751329_s_at) / Fold change (ACY-1035/veh), FGFR1OP (ProbeSet 11751329_s_at) / Fold change (Aza/veh), VPS36 (ProbeSet 11739960_a_at) / Fold change (ACY-1035/veh), VPS36 (ProbeSet 11739960_a_at) / RFU SYPL1 (11715823_x_at) / Fold change /veh SYPL1 (11715823_x_at) / RFU IGFBP7 (11715501_s_at) / Fold change /veh IGFBP7 (11715501_s_at) / RFU REEP3 (11722064_at) / Fold change /veh REEP3 (11722064_at) / RFU IGLL1 (11728026_x_at) / Fold change /veh IGLL1 (11728026_x_at): dose or concentration left out as unconfirmed
Conditions: MV-4-11 cells, 48 hours

## Nc1ccc(-c2cccs2)cc1NC(=O)c1ccc2c(c1)cc(C1CC1)n2CCN1CCOCC1 [ACY-1035]
  RFU RGS16 (11746705_a_at): 52.79 RFU
